{
  "source": "paper PMC11109052",
  "about": "“Metabolism characterization and toxicity of N-hydap, a marine candidate drug for lung cancer therapy by LC–MS method” (Natural Products and Bioprospecting, 2024)",
  "key": {"Cyp2e1": {"tested_on": "Cyp2e1", "assay": "Real-time PCR mRNA level after 7 days gavage: Cyp2e1", "type": "in vivo, mice", "design": "key to CYP2E1 mNA expression: ↑: up-regulation; ↓: down-regulation; –: no change", "conditions": "for mRNA levels of Cyp2e1: mice, 2, 5, 10 mg/kg p.o. 7 days", "method": "(§1) Mice were randomly divided into four groups, with eight animals in each group. The mice received oral pretreatment with N-hydap for 7 days at doses of 2, 5, and 10 mg/kg/day, which were considered as the low dose, medium dose, and high dose, respectively. Correspondingly, the control group received PBS. On the 8th day, the liver and kidneys were removed, and organs from eight mice per group were combined to prepare MLMs and MKMs using the detailed procedures above. Subsequently, we determined the activity of CYP and UGT enzymes by specific substrate metabolized with MLMs (0.5 mg/mL) and MKMs (0.2 mg/mL) in vitro. Specifically, the following selective substrates were used for the respective enzymes: PH (1 μM) for CYP1A2, DIC (1 μM) for CYP2C9, MP (90 μM) for CYP2C19, DM (1 μM) for CYP2D6, CZX (10 μM) for CYP2E1, Tes (1 μM) for CYP3A4, SN38 (1 μM) for UGT1A1, CACD (100 μM) for UGT1A3, Sero (20 μM) for UGT1A6, and Prop (1 μM) for UGT1A9. All substrates were dissolved in methanol or DMSO. The incubation procedure was carried out as mentioned above, and the reaction was terminated with VER (20 ng/mL) in ESI+ mode and CLP (200 ng/mL) in ESI− mode. In the ex vivo experiments, the activity of enzymes was measured by quantifying the production of various metabolites (nM/mg protein/min). The metabolites and their corresponding enzymes are as follows: APAP from PH, 4-OH-DIC from DIC, 4-OH-MP from MP, DXO from DM, 6-OH-CZX from CZX, 6-OH-Tes from Tes, SN38-G from SN38, CACD-G from CACD, Sero-G from Sero, Prop-G from Prop. The measurements were performed using multiple reaction monitoring (MRM) transitions, which are specific mass spectrometry transitions used for quantification. The optimized parameters for each metabolite, such as declustering potential and collision energy, were described in Supplementary Table 1. All experiments were conducted in triplicate, to ensure accuracy and reproducibility.\nTotal RNA from liver and kidney samples taken after 7 days of N-hydap gavage was extracted using the Animal Total RNA Isolation Kit (Foregene, Chengdu, Sichuan, China) following the manufacturer’s instructions. The concentrations of total RNA were determined by a nucleic acid concentration tester at 260/280 nm. A HiScript III RT SuperMix for qPCR (+ gDNA wiper) (Vazyme, Nanjing, Jiangsu, China) was used to measure the concentration of the synthesized cDNA. ChamQ SYBR qPCR Master Mix (Vazyme, Nanjing, Jiangsu, China) and detection were performed using a Light Cycler 480 II (ROCHE, Basel, Switzerland). Real-time PCR was used to analyze the relative mRNA levels of Cyp1a2, Cyp2b10, Cyp2c39, Cyp2d22, Cyp2e1, Cyp3a11, Ugt1a1, Ugt1a6a and Ugt1a9 (human homologs: CYP1A2, CYP2B6, CYP2C19, CYP2D6, CYP2E1, CYP3A4, UGT1A1, UGT1A6, and UGT1A9) in the liver, kidneys, and intestines. […]"}, "CYP2D6": {"tested_on": "CYP2D6", "assay": "DME activity ex vivo in MLMs and MKMs: CYP2D6 (DXO from DM)", "design": "species or system mice; key to CYP2D6 Enzymatic activity: ↑: up-regulation; ↓: down-regulation; –: no change", "method": "as §1"}, "UGT1A1": {"target": "T1, UGT1A1 (Homo sapiens, UniProt P22309)", "T1 construct": "purchased Cypex (Scotland, UK)", "T1 sequence (P22309 26-533)": "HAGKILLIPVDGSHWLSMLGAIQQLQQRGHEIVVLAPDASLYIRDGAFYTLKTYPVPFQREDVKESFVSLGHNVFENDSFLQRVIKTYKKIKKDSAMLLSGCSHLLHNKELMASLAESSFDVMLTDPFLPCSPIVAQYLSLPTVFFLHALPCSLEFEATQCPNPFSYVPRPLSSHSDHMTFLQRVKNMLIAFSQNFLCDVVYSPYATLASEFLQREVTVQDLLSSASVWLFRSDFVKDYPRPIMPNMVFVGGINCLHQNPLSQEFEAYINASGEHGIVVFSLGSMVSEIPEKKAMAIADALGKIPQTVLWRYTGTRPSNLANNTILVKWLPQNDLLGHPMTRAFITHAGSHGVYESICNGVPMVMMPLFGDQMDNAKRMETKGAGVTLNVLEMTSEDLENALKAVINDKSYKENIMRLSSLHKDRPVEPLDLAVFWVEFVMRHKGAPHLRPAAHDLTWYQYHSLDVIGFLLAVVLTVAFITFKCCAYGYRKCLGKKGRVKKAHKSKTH", "assay": "Incubation with recombinant human UGT isoforms: UGT1A1", "type": "in vitro ADME", "conditions": "recombinant UGT 2 μg/mL", "method": "(§2) Incubation of N-hydap (2.5 μM) with eight recombinant human CYP enzymes (CYP1A2, CYP2B6, CYP2C9, CYP2C19, CYP2D6, CYP3A4, CYP4A11 and CYP4F2) at three enzyme concentrations (2, 4, and 20 μg/mL) was conducted following the same procedure as described above for microsomes. Subsequently, incubation with N-hydap (1, 2.5, and 6 μM) and twelve recombinant human UGT isoforms (UGT1A1, UGT1A3, UGT1A4, UGT1A6, UGT1A7, UGT1A8, UGT1A9, UGT1A10, UGT2B4, UGT2B7, UGT2B15 and UGT2B17) was performed, with the enzyme concentration used at 2 μg/mL. All reactions were carried out in triplicate."}, "CYP2C19": {"tested_on": "CYP2C19", "assay": "DME activity ex vivo in MLMs and MKMs: CYP2C19 (4-OH-MP from MP)", "design": "species or system mice; key to CYP2C19 Enzymatic activity: ↑: up-regulation; ↓: down-regulation; –: no change", "method": "as §1"}, "UGT2B7": {"target": "T2, UGT2B7 (Homo sapiens, UniProt P16662)", "T2 construct": "purchased Cypex (Scotland, UK)", "T2 sequence (P16662 24-529)": "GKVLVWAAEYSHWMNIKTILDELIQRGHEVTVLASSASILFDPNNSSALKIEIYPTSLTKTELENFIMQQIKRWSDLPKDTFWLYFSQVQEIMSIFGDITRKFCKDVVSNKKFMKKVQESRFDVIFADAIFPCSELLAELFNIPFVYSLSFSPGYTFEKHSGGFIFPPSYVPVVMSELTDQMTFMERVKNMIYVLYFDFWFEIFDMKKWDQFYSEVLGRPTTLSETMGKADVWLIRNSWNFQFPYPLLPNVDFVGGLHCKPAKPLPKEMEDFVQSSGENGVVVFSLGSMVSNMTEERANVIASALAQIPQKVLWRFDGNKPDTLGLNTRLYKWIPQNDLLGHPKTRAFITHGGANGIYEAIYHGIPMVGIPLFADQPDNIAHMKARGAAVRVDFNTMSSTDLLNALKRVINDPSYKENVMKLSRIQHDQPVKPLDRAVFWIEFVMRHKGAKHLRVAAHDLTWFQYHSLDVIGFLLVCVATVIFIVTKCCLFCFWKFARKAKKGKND", "assay": "Incubation with recombinant human UGT isoforms: UGT2B7", "type": "in vitro ADME", "conditions": "recombinant UGT 2 μg/mL", "method": "as §2"}, "[1]": {"conditions": "liver microsomes of mice pretreated 7 days p.o."}},
  "data": [
    {"molecule": "CC1CCC2C(C=CC(C)C2C(=O)c2c(O)c(C3(O)CCC(O)C4OC43)cn(O)c2=O)C1", "note": "(stereo not shown) [N-hydap, N-Hydroxyapiosporamide]", "values": [
      {"measurement": "CYP2E1 mNA expression", "setting": "Cyp2e1; Kidney", "value": "↑"},
      {"measurement": "CYP2E1 mNA expression", "setting": "Cyp2e1; Liver", "value": "–"},
      {"measurement": "mRNA levels of Cyp2e1", "setting": "Cyp2e1; intestines", "value": "slight reduction"},
      {"measurement": "mRNA levels of Cyp2e1", "setting": "Cyp2e1; kidney", "value": "modest increase"},
      {"measurement": "CYP2D6 Enzymatic activity", "setting": "CYP2D6; Kidney", "value": "↑"},
      {"measurement": "CYP2D6 Enzymatic activity", "setting": "CYP2D6; Liver", "value": "↓"},
      {"measurement": "CYP2D6 inhibitor, experimental results", "setting": "CYP2D6; Table 4 experimental column", "value": "Inhibition in the liver"},
      {"measurement": "reduction of formation rate of DXO vs control", "setting": "CYP2D6; [1]", "value": 54, "unit": "%"},
      {"measurement": "contribution of UGT1A1 to formation of N-hydap-G", "setting": "UGT1A1", "value": "secondary contributors"},
      {"measurement": "CYP2C19 Enzymatic activity", "setting": "CYP2C19; Kidney", "value": "–"},
      {"measurement": "CYP2C19 Enzymatic activity", "setting": "CYP2C19; Liver", "value": "↓"},
      {"measurement": "reduction of formation rate of 4-OH-MP vs control", "setting": "CYP2C19; [1]", "value": 33, "unit": "%"},
      {"measurement": "contribution of UGT2B7 to formation of N-hydap-G", "setting": "UGT2B7", "value": "secondary contributors"}
    ]}
  ]
}
